# Test results published in PMC11842588, “A first-in-class selective inhibitor of ERK1/2 and ERK5 overcomes drug resistance with a single-molecule strategy” (Signal Transduction and Targeted Therapy, 2025).
# Assays:
# [1] = tested on: MDA-MB-468 cells; assay: MTT cell viability assay; format: cell-based; settings: 10 μM
# Experimental: (§1) MDA-MB-468 and MDA-MB-436 cells were cultured in Leibovitz’s L-15 medium supplemented with 10% fetal bovine serum. […] All of the cells were cultured at 37 °C in a humidified atmosphere containing 5% CO2.
# (§2) Cancer cells were seeded in a density in 96-well plates (2 × 10^3 cells per well). After incubation for 24 h, cancer cells were treated with compounds (0–20 μM) for 72 h.
# [2] = tested on: MDA-MB-231 cells; assay: MTT cell viability assay; format: cell-based; settings: 10 μM
# Experimental: as §1, §2
# [3] = target: ERK5 (Homo sapiens, UniProt Q13164); assay: ADP-Glo kinase assay; format: biochemical; settings: for inhibition at 0.5 µM: read-out: Enzyme inhibitory activity (500 nM, %) ERK5
# Experimental: (§3) The full-length human ERK1 or ERK2 with His-tag was cloned into a pET28a vector. hERK1/2 were expressed in Escherichia coli BL21(DE3), and then were purified using sequential Ni-NTA and Superdex 200 column steps. The SEC purified sample was then concentrated to 10 mg/ml and stored at −80 °C with buffer containing 20 mM HEPES pH 7.5, 150 mM NaCl. ERK5 (residues 48–395) containing His and GST tags was cloned into the pFastBac vector, and the recombinant plasmid was extracted. The recombinant plasmid was transformed into the DH10bac strain, and monoclonal was selected for culture. The recombinant Bacmid was then extracted according to the instructions of the Baculovirus Shuttle Vector Bacmid Mini Preparation Kit (Beyotime) and validated by PCR. 1 × 10^6/well Sf9 cells were counted for transfection and then amplified to obtain P3 ERK5 recombinant baculovirus. It was added to 2 × 10^6/mL Sf9 cells and incubated at 27 °C for 72 h on a shaker to express ERK5. Cells were lysed and supernatant was collected on a Ni-NTA for purification, and a 250 mM imidazole eluate was collected. Next, digestion by TEV protease was performed overnight while dialysis was performed in approximately 1000 mL of imidazole-free buffer. The digested ERK5 protein was sequentially purified on the Ni-NTA and GST-tag Purification Resin, followed by size exclusion chromatography on a Superdex 75 column. ERK5 protein was collected and concentrated to 12 mg/ml and stored at −80 °C in buffer containing 50 mM HEPES pH 8.0, 200 mM NaCl, 10% (v/v) glycerol.
# (§4) ERK1/2/5 kinase activity assay was conducted using ADP-Glo™ Kinase Assay. 2× ATP solution and 2× kinase & Metal solution were prepared using assay buffer were prepared using assay buffer containing 50 mM Hepes pH 7.5, 10 mM MgCl2; 0.01% Brij35, 1 mM EGTA, 2 mM DTT. Transfer 40 nL compounds to 384 assay plate. Add 2 μL of 2× kinase & Metal solution were mixed and incubated in a 384-assay plate for 10 min at 25 °C. 2 μL of 2×ATP solution was added and incubated at 25 °C for 60 min. And then, each well was supplemented with 4 µL of ADP-Glo^TM reagent and incubated at 25 °C for 40 min. Subsequently, 8 µL of Kinase Detection Reagent was added and incubated at 25 °C for 40 min. Finally, the luminescence signals were recorded. The IC50 values were calculated using GraphPad Prism 9.5 software.
# [4] = target: ERK1 (Homo sapiens, UniProt P27361); assay: ADP-Glo kinase assay; format: biochemical; settings: for inhibition at 0.5 µM: read-out: Enzyme inhibitory activity (500 nM, %) ERK1
# Experimental: as §3, §4
# [5] = target: ERK2 (Homo sapiens, UniProt P28482); assay: ADP-Glo kinase assay; format: biochemical; settings: for inhibition at 0.5 µM: read-out: Enzyme inhibitory activity (500 nM, %) ERK2
# Experimental: as §3, §4
# Chain of ERK1 (P27361 whole entry): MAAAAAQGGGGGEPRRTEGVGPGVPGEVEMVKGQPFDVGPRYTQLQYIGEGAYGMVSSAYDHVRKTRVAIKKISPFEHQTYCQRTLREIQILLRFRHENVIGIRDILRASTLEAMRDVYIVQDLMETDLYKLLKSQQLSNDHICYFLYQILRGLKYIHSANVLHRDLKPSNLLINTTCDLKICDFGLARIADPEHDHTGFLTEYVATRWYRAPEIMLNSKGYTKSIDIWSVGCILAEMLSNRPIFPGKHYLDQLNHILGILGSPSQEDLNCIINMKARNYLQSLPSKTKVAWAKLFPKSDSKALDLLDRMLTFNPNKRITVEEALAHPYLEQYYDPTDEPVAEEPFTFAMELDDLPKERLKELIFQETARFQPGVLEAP
# Chain of ERK5 (Q13164 whole entry, the tested form may be a part): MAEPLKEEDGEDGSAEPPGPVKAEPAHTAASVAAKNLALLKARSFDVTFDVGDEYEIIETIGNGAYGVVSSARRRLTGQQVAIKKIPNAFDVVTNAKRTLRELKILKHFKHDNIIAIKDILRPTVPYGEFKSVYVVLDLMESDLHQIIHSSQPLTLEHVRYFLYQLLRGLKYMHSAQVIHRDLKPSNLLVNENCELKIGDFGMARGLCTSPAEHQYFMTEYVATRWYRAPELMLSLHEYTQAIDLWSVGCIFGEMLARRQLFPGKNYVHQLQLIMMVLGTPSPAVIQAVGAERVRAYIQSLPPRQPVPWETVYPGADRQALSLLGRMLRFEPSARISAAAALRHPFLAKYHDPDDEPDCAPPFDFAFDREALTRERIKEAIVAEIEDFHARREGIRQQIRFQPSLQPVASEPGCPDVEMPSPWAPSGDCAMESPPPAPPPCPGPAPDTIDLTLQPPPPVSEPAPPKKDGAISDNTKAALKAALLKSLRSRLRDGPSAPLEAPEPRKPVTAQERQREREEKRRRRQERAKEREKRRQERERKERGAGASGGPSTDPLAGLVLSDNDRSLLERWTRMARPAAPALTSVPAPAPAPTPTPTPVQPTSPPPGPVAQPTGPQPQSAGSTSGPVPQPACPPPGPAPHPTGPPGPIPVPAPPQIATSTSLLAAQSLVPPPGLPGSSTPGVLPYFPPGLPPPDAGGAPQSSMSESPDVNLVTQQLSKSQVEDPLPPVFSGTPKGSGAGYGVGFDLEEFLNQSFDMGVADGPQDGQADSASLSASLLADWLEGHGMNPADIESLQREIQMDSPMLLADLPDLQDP
# Chain of ERK2 (P28482 whole entry): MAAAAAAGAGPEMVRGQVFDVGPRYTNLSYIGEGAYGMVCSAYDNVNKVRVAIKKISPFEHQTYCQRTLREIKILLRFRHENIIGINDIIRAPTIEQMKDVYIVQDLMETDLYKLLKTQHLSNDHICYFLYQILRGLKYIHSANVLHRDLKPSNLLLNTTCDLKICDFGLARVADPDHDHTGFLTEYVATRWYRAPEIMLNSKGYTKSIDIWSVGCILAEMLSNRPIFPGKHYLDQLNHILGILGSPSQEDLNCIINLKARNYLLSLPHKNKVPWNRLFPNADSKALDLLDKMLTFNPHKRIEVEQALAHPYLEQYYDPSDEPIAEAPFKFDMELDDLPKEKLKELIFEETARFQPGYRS
SMILES,"Anti-proliferative activity (10 μM, %) MDA-MB-468 [1]","Anti-proliferative activity (10 μM, %) MDA-MB-231 [2]",inhibition at 0.5 µM [3],inhibition at 0.5 µM [4],inhibition at 0.5 µM [5],"Enzyme inhibitory activity (500 nM, %) ERK5 [3]","Enzyme inhibitory activity (500 nM, %) ERK1 [4]","Enzyme inhibitory activity (500 nM, %) ERK2 [5]"
"CN1CCN(NC(=O)c2cc(-c3nc(Nc4ccnn4C)ncc3Cl)cs2)CC1 [6a, 4-(5-chloro-2-((1-methyl-1H-pyrazol-5-yl)amino)pyrimidin-4-yl)-N-(4-methylpiperazin-1-yl)thiophene-2-carboxamide]",10.78 ± 1.32%,15.06 ± 0.35%,63.8 ± 0.32%,95.72 ± 0.65%,97.4 ± 3.45%,,,
CSc1ccc(NC(=O)c2cc(-c3nc(Nc4ccnn4C)ncc3Cl)cs2)cc1 [6ac],18.49 ± 0.23%,22.57 ± 1.11%,,,,69.90 ± 2.56%,95.98 ± 1.02%,97.67 ± 0.90%
CC(C)Oc1ccc(NC(=O)c2cc(-c3nc(Nc4ccnn4C)ncc3Cl)cs2)cc1 [6ae],4.62 ± 0.89%,15.96 ± 0.09%,,,,61.02 ± 1.22%,93.45 ± 1.80%,95.32 ± 0.08%
"COc1ccc(NC(=O)c2cc(-c3nc(Nc4ccnn4C)ncc3Cl)cs2)cc1OC [6ag, 4-(5-chloro-2-((1-methyl-1H-pyrazol-5-yl)amino)pyri-midin-4-yl)-N-(3,4-dimethoxyphenyl)thiophene-2-carboxamide]",25.61 ± 0.45%,33.67 ± 0.08%,,,,65.13 ± 0.90%,92.13 ± 1.04%,94.53 ± 1.21%
CN1CCN(C(=O)c2cc(-c3nc(Nc4ccnn4C)ncc3Cl)cs2)CC1 [6b],25.81 ± 2.43%,3.15 ± 1.22%,,,,28.02 ± 1.34%,40.45 ± 1.23%,39.03 ± 2.13%
CC(C)N1CCN(C(=O)c2cc(-c3nc(Nc4ccnn4C)ncc3Cl)cs2)CC1 [6c],3.51 ± 0.77%,5.71 ± 1.21%,,,,19.12 ± 2.15%,21.57 ± 2.34%,14.38 ± 0.24%
Cn1nccc1Nc1ncc(Cl)c(-c2csc(C(=O)NC3CCSCC3)c2)n1 [6d],23.35 ± 2.34%,37.21 ± 0.72%,,,,34.57 ± 1.42%,93.12 ± 1.89%,91.52 ± 0.31%
Cn1nccc1Nc1ncc(Cl)c(-c2csc(C(=O)NN3CCOCC3)c2)n1 [6e],0.70 ± 0.45%,11.49 ± 1.48%,,,,70.61 ± 0.98%,97.82 ± 0.43%,99.00 ± 0.56%
Cn1nccc1Nc1ncc(Cl)c(-c2csc(C(=O)N[C@H]3CC[C@H](O)CC3)c2)n1 [6f],57.68 ± 1.09%,11.85 ± 2.31%,,,,35.94 ± 1.21%,89.31 ± 0.87%,89.54 ± 2.31%
Cc1cc(NC(=O)c2cc(-c3nc(Nc4ccnn4C)ncc3Cl)cs2)ccn1 [6g],20.23 ± 0.32%,6.82 ± 2.13%,,,,73.61 ± 3.12%,70.32 ± 0.91%,72.75 ± 2.14%
Cn1nccc1Nc1ncc(Cl)c(-c2csc(C(=O)NCc3cnccn3)c2)n1 [6h],7.43 ± 3.45%,23.65 ± 1.27%,,,,,,
Cn1nccc1Nc1ncc(Cl)c(-c2csc(C(=O)Nc3ccccc3)c2)n1 [6i],-12.07 ± 2.31%,5.65 ± 0.22%,,,,,,
Cn1nccc1Nc1ncc(Cl)c(-c2csc(C(=O)Nc3cccc(F)c3)c2)n1 [6j],10.11 ± 0.76%,25.73 ± 0.57%,,,,,,
Cn1nccc1Nc1ncc(Cl)c(-c2csc(C(=O)Nc3cccc(Cl)c3)c2)n1 [6k],23.41 ± 0.48%,39.12 ± 1.23%,,,,36.99 ± 0.32%,59.39 ± 3.21%,57.85 ± 0.88%
Cn1nccc1Nc1ncc(Cl)c(-c2csc(C(=O)Nc3cccc(Br)c3)c2)n1 [6l],23.35 ± 2.37%,33.90 ± 1.22%,,,,32.34 ± 0.89%,47.12 ± 9.23%,46.65 ± 0.32%
Cn1nccc1Nc1ncc(Cl)c(-c2csc(C(=O)Nc3cccc(C(F)(F)F)c3)c2)n1 [6m],30.41 ± 0.68%,34.62 ± 1.24%,,,,35.45 ± 1.32%,50.98 ± 3.23%,53.43 ± 0.43%
Cn1nccc1Nc1ncc(Cl)c(-c2csc(C(=O)Nc3cccc(OC(F)(F)F)c3)c2)n1 [6n],33.21 ± 0.54%,43.93 ± 0.21%,,,,18.64 ±2.32%,67.08 ± 0.98%,66.54 ± 2.11%
Cn1nccc1Nc1ncc(Cl)c(-c2csc(C(=O)Nc3cccc(N)c3)c2)n1 [6p],28.42 ± 1.21%,33.51 ± 0.32%,,,,77.49 ± 0.89%,86.34 ± 0.79%,84.67 ± 0.65%
CN(C)Cc1cccc(Nc2ncc(Cl)c(-c3csc(C(=O)Nc4cccc(N(C)C)c4)c3)n2)c1 [18d],50.45 ± 2.12%,85.64 ± 1.02%,,,,78.85 ± 2.67%,,23.97 ± 0.90%
COc1cc(N2CCN(C)CC2)ccc1NC(=O)c1cc(-c2nc(Nc3ccnn3C)ncc2Cl)cs1 [H1],,,59.5%,62.5%,64.2%,,,
